Source: patent US11407781B2, “Equatorially modified polymer linked multimers of guanosine-3′, 5′-cyclic monophosphates” (GRAYBUG VISION, INC., priority 2016, dated 2022)

Assay: Determination of lipophilicity by RP-18 HPLC retention (log k′g)
Format: physicochemical
Conditions: RP-18 reversed phase HPLC, gradient elution, ion pair chromatography with triethylammonium cation
Text: Lipophilicity information is thus often only obtained by fragment analysis and corresponding calculations.
An established HPLC method, which is based on retention data on RP-18 reversed phase silica during gradient elution, was used for the determination of lipohilicity.
Instead of log P the method yields the descriptor log k′g, ranking analytes according to their lipophilicity on a logarithmic scale as well. Since charged molecules such as cyclic nucleotides have only hardly any retention on reversed phases, ion pair chromatography with the lipophilic triethylammonium cation is used.

SMILES: CC(C)c1ccc(Sc2nc3c(=O)n4cc(-c5ccccc5)[nH]c4nc3n2[C@@H]2O[C@@H]3CO[P@@](=O)(S)O[C@H]3[C@H]2O)cc1 (single isomer, unassigned) [Compound 35, 8-(4-Isopropylphenylthio)-β-phenyl-1,N^2-ethenoguanosine-3′,5′-cyclic monophosphorothioate, Rp-isomer]
- log k′g: 3.815
